According to patent US10815210B2, “Benzocyclobutane derivatives useful as dual SGLT1 / SGLT2 modulators” (Janssen Pharmaceutica NV, priority 2016, dated 2020):

Assays:
human SGLT1 = target: T1, human SGLT1 (Homo sapiens, UniProt P13866); assay: SGLT1 assay: Na-dependent 14C-AMG uptake in CHO-K1 cells stably expressing human SGLT1; assay type: cell-based; details: for IC50: 500 μM AMG, 2 hours at 37° C.
T1 construct: expressed in transfected cells; host or cells: CHO-K1
T1 sequence (P13866 1-664): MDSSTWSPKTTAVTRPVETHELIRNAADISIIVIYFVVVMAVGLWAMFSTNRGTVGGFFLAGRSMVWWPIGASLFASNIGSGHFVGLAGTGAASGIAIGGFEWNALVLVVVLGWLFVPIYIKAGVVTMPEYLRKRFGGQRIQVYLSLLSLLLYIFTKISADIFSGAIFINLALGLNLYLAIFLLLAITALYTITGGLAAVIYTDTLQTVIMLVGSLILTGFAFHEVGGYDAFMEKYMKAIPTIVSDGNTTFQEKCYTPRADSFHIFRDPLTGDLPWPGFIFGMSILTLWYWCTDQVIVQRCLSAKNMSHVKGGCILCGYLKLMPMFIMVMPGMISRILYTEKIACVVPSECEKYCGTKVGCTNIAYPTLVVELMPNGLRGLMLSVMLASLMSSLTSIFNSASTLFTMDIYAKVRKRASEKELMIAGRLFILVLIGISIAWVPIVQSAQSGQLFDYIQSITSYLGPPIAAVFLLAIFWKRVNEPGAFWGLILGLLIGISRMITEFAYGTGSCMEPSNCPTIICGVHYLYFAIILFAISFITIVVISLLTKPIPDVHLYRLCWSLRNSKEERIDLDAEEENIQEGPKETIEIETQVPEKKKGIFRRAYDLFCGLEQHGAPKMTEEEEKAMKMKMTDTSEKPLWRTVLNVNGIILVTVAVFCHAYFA
Summary of the method: (§1)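 CHO-K1 cells stably expressing human SGLT1 or SGLT2, pretreated 24 h with 10 mM Na-butyrate, were exposed 10 min to compound (0.001-10 μM) in Na-containing HEPES/Tris buffer pH 7.4. Uptake of ^14C-AMG (500 μM final) ran 2 h at 37° C, then Na-dependent uptake was counted by scintillation.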

human SGLT2 = target: T2, human SGLT2 (Homo sapiens, UniProt P31639); assay: SGLT2 assay: Na-dependent 14C-AMG uptake in CHO-K1 cells stably expressing human SGLT2; assay type: cell-based; details: for IC50: 500 μM AMG, 2 hours at 37° C.
T2 construct: expressed in transfected cells; host or cells: CHO-K1
T2 sequence (P31639 1-672): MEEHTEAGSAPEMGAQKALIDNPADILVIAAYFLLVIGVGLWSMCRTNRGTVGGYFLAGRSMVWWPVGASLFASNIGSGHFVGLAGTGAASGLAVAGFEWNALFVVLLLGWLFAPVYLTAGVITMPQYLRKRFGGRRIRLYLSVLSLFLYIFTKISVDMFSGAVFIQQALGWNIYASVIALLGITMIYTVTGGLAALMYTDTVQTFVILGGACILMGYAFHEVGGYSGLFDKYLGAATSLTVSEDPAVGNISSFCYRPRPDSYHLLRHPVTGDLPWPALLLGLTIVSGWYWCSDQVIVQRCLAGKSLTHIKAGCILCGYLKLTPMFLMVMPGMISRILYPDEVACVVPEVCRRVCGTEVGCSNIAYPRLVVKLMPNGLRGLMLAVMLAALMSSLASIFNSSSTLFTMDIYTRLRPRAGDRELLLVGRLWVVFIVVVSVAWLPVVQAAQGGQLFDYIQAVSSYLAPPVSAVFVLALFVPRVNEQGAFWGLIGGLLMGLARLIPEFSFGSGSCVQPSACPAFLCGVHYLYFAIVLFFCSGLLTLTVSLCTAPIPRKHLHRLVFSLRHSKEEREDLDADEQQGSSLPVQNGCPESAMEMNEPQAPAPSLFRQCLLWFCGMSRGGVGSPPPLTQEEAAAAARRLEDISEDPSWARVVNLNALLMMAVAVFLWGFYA
Summary of the method: as §1

SMILES | IC50 (human SGLT1) | IC50 (human SGLT2) | inhibition at 0.3 µM (human SGLT1) | inhibition at 0.03 µM (human SGLT2)
COc1cc(C)c(Cc2ccc3c(c2)CC3)cc1[C@@H]1O[C@H](CO)[C@@H](O)[C@H](O)[C@H]1O [Compound 7, (2S,3R,4R,5S,6R)-2-(5-((1,2-dihydrocyclobutabenzen-4-yl)methyl)-2-methoxy-4-methylphenyl)-6-(hydroxymethyl)-tetrahydro-2H-pyran-3,4,5-triol] | 48 nM | 1 nM |  | 
CCc1cc(OCF)c([C@@H]2O[C@H](CO)[C@@H](O)[C@H](O)[C@H]2O)cc1Cc1ccc2c(c1)CC2 [Compound 42, (2S,3R,4R,5S,6R)-2-(5-((1,2-dihydrocyclobutabenzen-4-yl)methyl)-4-ethyl-2-(fluoromethoxy)phenyl)-6-(hydroxymethyl)-tetrahydro-2H-pyran-3,4,5-triol] | 34 nM | 2 nM |  | 
Cc1cc(O)c([C@@H]2O[C@H](CO)C(F)(F)[C@H](O)[C@H]2O)cc1Cc1ccc2c(c1)CC2 [Compound 92, (2S,3R,4R,6R)-2-(5-(bicyclo[4.2.0]octa-1(6),2,4-trien-3-ylmethyl)-2-hydroxy-4-methylphenyl)-5,5-difluoro-6-(hydroxymethyl)tetrahydro-2H-pyran-3,4-diol] | 14 nM | 2 nM |  | 
CN(C)c1cc(O)c([C@@H]2O[C@H](CO)[C@@H](O)[C@H](O)[C@H]2O)cc1Cc1ccc2c(c1)CC2 [Compound 22, (2S,3R,4R,5S,6R)-2-(5-((1,2-dihydrocyclobutabenzen-4-yl)methyl)-4-(dimethylamino)-2-hydroxyphenyl)-6-(hydroxymethyl)-tetrahydro-2H-pyran-3,4,5-triol] | 12 nM | 3 nM |  | 
OC[C@H]1O[C@@H](c2ccc(F)c(Cc3ccc4c(c3)CC4)c2)[C@H](O)[C@@H](O)[C@@H]1O [Compound 101] |  |  | 22% | 70%
Cc1cc(O)c([C@@H]2O[C@H](CO)[C@@H](O)[C@H](O)[C@H]2O)cc1Cc1ccc2c(c1)CC2 [Compound 6, (2S,3R,4R,5S,6R)-2-(5-((1,2-dihydrocyclobutabenzen-4-yl)methyl)-2-hydroxy-4-methylphenyl)-6-(hydroxymethyl)-tetrahydro-2H-pyran-3,4,5-triol] | 4 nM | 1 nM |  | 
CCOc1cc(C)c(Cc2ccc3c(c2)CC3)cc1[C@@H]1O[C@H](CO)[C@@H](O)[C@H](O)[C@H]1O [Compound 113] | 84 nM | 1 nM |  | 
[2H]C1([2H])Cc2cc(Cc3cc([C@@H]4O[C@H](CO)[C@@H](O)[C@H](O)[C@H]4O)c(OC)cc3C)ccc21 [Compound 86, (2S,3R,4R,5S,6R)-2-(5-((1,1-dideuterium-1,2-dihydrocyclobutabenzen-4-yl)methyl)-2-methoxy-4-methylphenyl)-6-(hydroxymethyl)-tetrahydro-2H-pyran-3,4,5-triol] | 68 nM | 2 nM |  | 
COc1cc(OC(F)(F)F)c([C@@H]2O[C@H](CO)[C@@H](O)[C@H](O)[C@H]2O)cc1Cc1ccc2c(c1)CC2 [Compound 34, (2S,3R,4R,5S,6R)-2-(5-((1,2-dihydrocyclobutabenzen-4-yl)methyl)-4-methoxy-2-(trifluoromethoxy)phenyl)-6-(hydroxymethyl)-tetrahydro-2H-pyran-3,4,5-triol] |  |  | 24% | 72%
[2H]C1([2H])Cc2ccc(Cc3cc([C@@H]4O[C@H](CO)[C@@H](O)[C@H](O)[C@H]4O)ccc3Cl)cc21 (single isomer, unassigned) [Compound 62] | 168 nM | 9 nM |  | 
CCOc1cc(Cl)c(Cc2ccc3c(c2)CC3)cc1[C@@H]1O[C@H](CO)[C@@H](O)[C@H](O)[C@H]1O [Compound 115] | 22 nM | 1 nM |  | 
Cc1ccc([C@@H]2O[C@H](CO)[C@@H](O)[C@H](O)[C@H]2O)cc1C(F)(F)c1ccc2c(c1)CC2 [Compound 141] | 33 nM | 2 nM |  | 
Cc1cc(OC2CC2)c([C@@H]2O[C@H](CO)[C@@H](O)[C@H](O)[C@H]2O)cc1Cc1ccc2c(c1)CC2 [Compound 118] | 22 nM | 1 nM |  | 
